Among the data in patent US20220226337A1 (Gilead Sciences, Inc., priority 2018, published 2022) are EC50 values, retold here.

The assay has as its target T1, α4β7 integrin interaction with MadCAM-1 (RPMI8866 cells) (Homo sapiens, UniProt P13612+P26010).
T1 construct: α4β7 integrin expressing cells; endogenous in cells; host or cells: RPMI8866 cells
T1 sequence (P13612 34-1032): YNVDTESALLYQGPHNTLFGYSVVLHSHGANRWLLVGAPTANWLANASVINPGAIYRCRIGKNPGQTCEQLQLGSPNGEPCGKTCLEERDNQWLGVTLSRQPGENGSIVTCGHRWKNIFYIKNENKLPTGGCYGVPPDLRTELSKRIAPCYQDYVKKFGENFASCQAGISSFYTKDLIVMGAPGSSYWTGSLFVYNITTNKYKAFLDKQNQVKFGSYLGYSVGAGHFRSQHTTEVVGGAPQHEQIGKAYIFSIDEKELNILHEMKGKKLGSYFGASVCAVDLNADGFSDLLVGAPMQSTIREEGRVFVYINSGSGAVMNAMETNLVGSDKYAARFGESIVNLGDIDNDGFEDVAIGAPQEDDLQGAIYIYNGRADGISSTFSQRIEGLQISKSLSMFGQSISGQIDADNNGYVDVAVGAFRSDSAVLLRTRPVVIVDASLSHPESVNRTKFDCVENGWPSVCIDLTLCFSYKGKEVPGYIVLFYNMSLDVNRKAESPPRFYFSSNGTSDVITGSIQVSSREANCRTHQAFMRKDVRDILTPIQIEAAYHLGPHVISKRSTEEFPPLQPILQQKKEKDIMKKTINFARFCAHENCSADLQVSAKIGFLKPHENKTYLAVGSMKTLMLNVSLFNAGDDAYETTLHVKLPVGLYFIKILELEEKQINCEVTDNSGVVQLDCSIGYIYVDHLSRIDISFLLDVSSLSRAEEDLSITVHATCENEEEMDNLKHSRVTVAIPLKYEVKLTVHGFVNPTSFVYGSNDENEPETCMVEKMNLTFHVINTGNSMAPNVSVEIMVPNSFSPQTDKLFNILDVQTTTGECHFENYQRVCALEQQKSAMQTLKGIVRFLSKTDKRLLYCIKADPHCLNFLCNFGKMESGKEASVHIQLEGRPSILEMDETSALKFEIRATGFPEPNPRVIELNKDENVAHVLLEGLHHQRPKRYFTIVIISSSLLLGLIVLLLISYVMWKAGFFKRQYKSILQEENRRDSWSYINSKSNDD
T1 sequence (P26010 20-798): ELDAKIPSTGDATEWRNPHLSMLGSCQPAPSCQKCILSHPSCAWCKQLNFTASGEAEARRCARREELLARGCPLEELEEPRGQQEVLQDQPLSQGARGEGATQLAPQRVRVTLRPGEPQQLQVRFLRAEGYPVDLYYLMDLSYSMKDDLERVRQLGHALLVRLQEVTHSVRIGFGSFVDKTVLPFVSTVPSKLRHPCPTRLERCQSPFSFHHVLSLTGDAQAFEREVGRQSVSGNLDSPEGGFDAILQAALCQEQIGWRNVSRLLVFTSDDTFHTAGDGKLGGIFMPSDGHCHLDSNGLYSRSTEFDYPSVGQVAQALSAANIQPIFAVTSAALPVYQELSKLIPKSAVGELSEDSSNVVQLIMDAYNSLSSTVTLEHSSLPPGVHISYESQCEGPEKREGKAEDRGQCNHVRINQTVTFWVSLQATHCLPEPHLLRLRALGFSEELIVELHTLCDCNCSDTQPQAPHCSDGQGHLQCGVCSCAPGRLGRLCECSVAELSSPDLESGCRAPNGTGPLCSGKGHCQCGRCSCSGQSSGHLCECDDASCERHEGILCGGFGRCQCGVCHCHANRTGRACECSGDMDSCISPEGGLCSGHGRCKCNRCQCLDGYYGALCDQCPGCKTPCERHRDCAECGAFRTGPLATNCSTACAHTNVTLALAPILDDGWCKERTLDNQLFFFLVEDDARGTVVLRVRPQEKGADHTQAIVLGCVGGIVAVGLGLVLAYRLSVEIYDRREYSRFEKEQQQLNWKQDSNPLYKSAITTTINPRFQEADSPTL
The assay can be described thus: α4β7 Integrin Cell Capture Assay. To be noted: capture of α4β7 integrin expressing RPMI8866 cells on recombinant MadCAM-1 extracellular domain-coated plate; 0.5 mM MnCl2. It is filed as cell-based. The gist of the method: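 RPMI8866 cells (0.5×10^6 cells/mL in DMEM + 0.5% FBS + 0.5 mM MnCl2) preincubated with compound 1 h at 37 °C, then allowed to adhere 30 min at 37 °C to plates coated with MAdCAM-1 extracellular domain (1.0 μg/mL). Bound cells fixed with 2% glutaraldehyde, Hoechst-stained, imaged and counted; EC50 from cell count versus concentration.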
Broadly, the EC50 is the concentration at which the effect is half-maximal. Consider `Cc1c(-c2ccc(C[C@H](NC(=O)c3c(F)cccc3F)C(=O)O)c3c2COC3)c(=O)n(C)c(=O)n1C` [Example 18, (S)-2-(2,6-difluorobenzamido)-3-(7-(1,3,6-trimethyl-2,4-dioxo-1,2,3,4-tetrahydropyrimidin-5-yl)-1,3-dihydroisobenzofuran-4-yl)propanoic acid], for which the EC50 stood at 5.22 nM.
The same measure for `Cc1cc(-c2ccc(C[C@H](NC(=O)c3c(F)cc(N4CCOC[C@@H]4C(F)(F)F)cc3F)C(=O)O)c3c2OCCC3)c(=O)n(C)n1` [Example 148]: 0.76 nM; for `CC[C@@H](Nc1cc(F)c(C(=O)N[C@@H](Cc2ccc(-c3c(C(F)(F)F)cc(C)n(C)c3=O)c3c2CCCO3)C(=O)O)c(F)c1)C(F)(F)F` [Example 43, (S)-2-(2,6-difluoro-4-(((R)-1,1,1-trifluorobutan-2-yl)amino)benzamido)-3-(8-(1,6-dimethyl-2-oxo-4-(trifluoromethyl)-1,2-dihydropyridin-3-yl)chroman-5-yl)propanoic acid]: 0.633 nM.
The value for `CC[C@@H](Nc1cc(F)c(C(=O)N[C@@H](Cc2ccc(-c3nc(C)c(C)n(C)c3=O)c3c2CCCO3)C(=O)O)c(F)c1F)C(F)(F)F` [Example 122] was 0.271 nM.
Regarding `Cn1c(=O)c(-c2ccc(C[C@H](NC(=O)c3c(Cl)cccc3Cl)C(=O)O)c3c2OC(C)(C)C3)cc2ccccc21` [Example 38, (S)-2-(2,6-dichlorobenzamido)-3-(2,2-dimethyl-7-(1-methyl-2-oxo-1,2-dihydroquinolin-3-yl)-2,3-dihydrobenzofuran-4-yl)propanoic acid], the EC50 came out at 20.6 nM.
The same measure for `Cc1cc(N2CCOC[C@@H]2C(F)(F)F)cc(F)c1C(=O)N[C@@H](Cc1ccc(-c2cnc(C)n(C)c2=O)c2c1OCCO2)C(=O)O` [Example 178]: 0.348 nM; for `Cc1nc(-c2ccc(C[C@H](NC(=O)c3c(F)cc(N4CCOC[C@@H]4C(F)(F)F)cc3F)C(=O)O)c3c2CCC3)c(=O)n(C)c1C` [Example 193]: 0.264 nM.
With `CC[C@@H](Nc1cc(F)c(C(=O)N[C@@H](Cc2ccc(-c3c(C(F)(F)F)cc(C)n(C)c3=O)c3c2CCCO3)C(=O)O)c(F)c1)C(F)(F)F` (single isomer, unassigned) [Example 45], the EC50 worked out at 0.964 nM.
Take `CC[C@@H](Nc1cc(F)c(C(=O)N[C@@H](Cc2ccc(-c3ncc(C)c(C)n3)c3c2COC3)C(=O)O)c(F)c1)C(F)(F)F` [Example 24, (S)-2-(2,6-difluoro-4-(((R)-1,1,1-trifluorobutan-2-yl)amino)benzamido)-3-(7-(4,5-dimethylpyrimidin-2-yl)-1,3-dihydroisobenzofuran-4-yl)propanoic acid]: the EC50 amounted to 100 nM.
Turning to `Cc1c(-c2ccc(C[C@H](NC(=O)c3c(F)cccc3F)C(=O)O)c3c2CCOC3)c(=O)n(C)c2ccc(F)cc12` (single isomer, unassigned) [Example 37], the EC50 worked out at 1.6 nM.
On to `O=C(N[C@@H](Cc1ccc(-c2c(Cl)cc(F)cc2Cl)c2c1C1CC1CO2)C(=O)O)c1c(F)cccc1F` (stereo partly drawn) [Example 77, (2S)-3-(4-(2,6-dichloro-4-fluorophenyl)-1,1a,2,7b-tetrahydrocyclopropa [c]chromen-7-yl)-2-(2,6-difluorobenzamido)propanoic acid], for which the EC50 is 70.3 nM.
Turning to `Cc1nc(C)n(C)c(=O)c1-c1ccc(C[C@H](NC(=O)c2c(F)cc(N3CCOC[C@@H]3C(F)(F)F)cc2F)C(=O)O)c2c1OCCC2` [Example 130], the EC50 came to 0.341 nM.
With `Cc1cc(N2CCOC[C@@H]2C(F)(F)F)cc(F)c1C(=O)N[C@@H](Cc1ccc(-n2c(=O)c3ccncc3n(C)c2=O)c2c1OCCO2)C(=O)O` [Example 173], the EC50 turned out to be 0.056 nM.
In the case of `Cn1c(=O)c(-c2ccc(C[C@H](NC(=O)c3c(F)cc(N4CCOC[C@@H]4C(F)(F)F)cc3F)C(=O)O)c3c2COC3)cc2ccccc21` [Example 26, (S)-2-(2,6-difluoro-4-((R)-3-(trifluoromethyl)morpholino)benzamido)-3-(7-(1-methyl-2-oxo-1,2-dihydroquinolin-3-yl)-1,3-dihydroisobenzofuran-4-yl)propanoic acid], the EC50 came out at 1.04 nM.
`COc1cc(C)n(C)c(=O)c1-c1ccc(C[C@H](NC(=O)c2c(C)cc(N3CCOC[C@@H]3C(F)(F)F)cc2F)C(=O)O)c2c1OCCC2` [Example 166]: the EC50 was found to be 0.195 nM.
For `CC1(C)CCc2c(C[C@H](NC(=O)c3c(Cl)cccc3Cl)C(=O)O)ccc(-c3c(Cl)cc(F)cc3Cl)c2O1` [Example 95, (S)-3-(8-(2,6-dichloro-4-fluorophenyl)-2,2-dimethylchroman-5-yl)-2-(2,6-dichlorobenzamido)propanoic acid], the EC50 is 625 nM.
For `Cn1c2c(nc(-c3ccc(C[C@H](NC(=O)c4c(F)cc(N5CCOC[C@@H]5C(F)(F)F)cc4F)C(=O)O)c4c3OCCC4)c1=O)CCCC2` [Example 127], the EC50 is 0.455 nM.
As to `Cc1cc(N2CCOC[C@@H]2C(F)(F)F)cc(F)c1C(=O)N[C@@H](Cc1ccc(-c2c(C)c(C(F)(F)F)cn(C)c2=O)c2c1CCCO2)C(=O)O` [Example 146], the EC50 turned out to be 0.416 nM.
As to `CC[C@@H](Nc1cc(F)c(C(=O)N[C@@H](Cc2ccc(-c3c(C)n(C)c(=O)n(C)c3=O)c3c2CCCO3)C(=O)O)c(F)c1)C(F)(F)F` (single isomer, unassigned) [Example 55], the EC50 stood at 0.152 nM.
Consider `O=C(N[C@@H](Cc1ccc(-c2ncc3ccccc3c2Br)c2c1CCCO2)C(=O)O)c1c(Cl)cccc1Cl` [Example 63, (S)-3-(8-(4-bromoisoquinolin-3-yl)chroman-5-yl)-2-(2,6-dichlorobenzamido) propanoic acid], for which the EC50 turned out to be 7.99 nM.
As to `Cc1nc(-c2ccc(C[C@H](NC(=O)c3c(F)cccc3F)C(=O)O)c3c2OCCO3)c(C(F)(F)F)c2ccccc12` [Example 2, (S)-2-(2,6-difluorobenzamido)-3-(8-(1-methyl-4-(trifluoromethyl)isoquinolin-3-yl)-2,3-dihydrobenzo[b][1,4]dioxin-5-yl)propanoic acid], the EC50 stood at 3.76 nM.
Consider `O=C(N[C@@H](Cc1ccc(-c2c(Cl)cc(F)cc2Cl)c2c1[C@@H]1C[C@@H]1CO2)C(=O)O)c1c(F)cccc1F` (single isomer, unassigned) [Example 79], for which the EC50 came out at 33.1 nM.
Consider `COc1cc(C#Cc2ccc(OC(F)(F)F)cc2)cc(OC)c1-c1ccc(C[C@H](NC(=O)c2c(Cl)cccc2Cl)C(=O)O)c2c1OCCC2` [Example 93, (S)-2-(2,6-dichlorobenzamido)-3-(8-(2,6-dimethoxy-4-((4-(trifluoromethoxy)phenyl)ethynyl)phenyl)chroman-5-yl)propanoic acid], for which the EC50 was 491 nM.
In the case of `Cc1c(-c2ccc(C[C@H](NC(=O)c3c(Cl)cccc3Cl)C(=O)O)c3c2OCCC3)c(=O)n(C)c2ccccc12` [Example 60, (S)-2-(2,6-dichlorobenzamido)-3-(8-(1,4-dimethyl-2-oxo-1,2-dihydroquinolin-3-yl)chroman-5-yl)propanoic acid], the EC50 stood at 4.12 nM.
On to `CCc1nc(-c2ccc(C[C@H](NC(=O)c3c(C)cc(N4CCOC[C@@H]4C(F)(F)F)cc3F)C(=O)O)c3c2OCCC3)c(=O)n(C)c1CC` [Example 169], for which the EC50 was found to be 0.356 nM.
